# Experiments:
# HSV-1 [1] = type: cell-based, mouse
# Experimental: FIG. 20 is a dot plot showing latently infected trigeminal ganglia that were explanted in the presence of DMSO, 100 mM ACV, or 50 mM ML324 for 48 hours. The total number of UL29+ neurons per ganglia is graphed, representing the number of neurons undergoing viral reactivation. Data are means±SEM.
# HSV-1 [2] = assay: HSV-1 lytic viral yields from HFF cells; type: cell-based; design: reduction of viral yields: dose or concentration left out as unconfirmed; settings: HFF cells, HSV-1 0.1 PFU per cell, 24 hours; FIG. 14
# Experimental: FIG. 14 is a bar graph showing viral yields from HFF cells treated with DMSO or ML324 for 3 hours and infected with HSV-1 (0.1 PFUper cell) for 24 hours in the presence of the drugs. *P<0.004, one-way ANOVA with Dunnett's post hoc test. Data are means±SEM.
# HSV-1 lytic viral yields decrease in the presence of DMOG (FIG. 10). HFF cells were pretreated with DMSO control or JMJD2 inhibitor DMOG for 5 hrs and infected with 0.1 pfu/cell of HSV-1 for 24 hrs in the presence of DMSO or DMOG. The yield of infectious virus derived from each treatment were determined by tittering on Vero cells according to standard procedures.
# HSV-1 [3] = assay: MRC-5 cells infected with HSV-1 at high MOI (IE mRNA, viral yields); type: cell-based
# Experimental: FIG. 15 is a bar graph showing MRC-5 cells treated with DMSO or 50 mM ML324 that were infected with HSV-1 at the indicated multiplicity of infection (MOI). Viral IE and cellular mRNA levels were quantitated at 2 hours after infection. *P<0.0001, two-way ANOVA with Tukey's post hoc test. Data are means±SEM.
# FIG. 16 is a bar graph showing MRC-5 cells treated with DMSO or 50 mM ML324 that were infected with HSV-1 at the indicated MOI. Viral yields were determined at 24 hours after infection. *P<0.0001, two-way ANOVA with Tukey's post hoc test. Data are means±SEM.
# HSV-1 [4] = type: cell-based, Balb/c mice; design: reduction of viral reactivation (viral yield): unit of the concentration uncertain
# Experimental: FIG. 18 is a dot plot showing latently infected ganglia that were explanted in the presence of DMSO, ACV (100 mM), or ML324 (50 mM) for 48 hrs. Viral yields were determined from one half of each ganglia at 48 hrs (DMSO, ACV, ML324) and from the other half of each ganglia after drug reversal for an additional 72 hrs (ACV-R, ML324-R) [Wilcoxon matched pairs signed rank test, ACV vs ACV-R n=8, ML324 vs ML324-R n=10]. Data are means±SEM.
# FIG. 19 is a dot plot showing viral yields from HSV-1 latently infected trigeminal ganglia that were explanted in the presence of DMSO, or 2 mM DMOG or 50 mM ML324 for 48 hours (DMSO versus DMOG: P=0.0015, Wilcoxon matched-pairs signed rank test; n=12; DMSO versus ML324: P<0.0001; n=20). Data are means±SEM.
# Viral yields decrease from HSV-1 latently infected ganglia explanted in the presence of LSD1 or JMJD2 inhibitors (FIG. 11). Balb/c mice were infected with 5×10^6 PFU HSV-1 (strain F) per eye after corneal scarification. Latently infected mice were sacrificed 45 days post clearance of the primary infection and trigeminal ganglia were rapidly explanted into culture in the presence of 2 mM DMOG, 2 mM TCP, or control (DMSO or ACV, acyclovir) for 48 hours. Post explant incubation, the ganglia were homogenized and briefly sonicated. The reactivated viral yield of each ganglia was determined by titering the clarified supernatant on Vero cells. Statistical comparisons were made using Wilcoxon signed rank test (paired ganglia) with a statistical significance of <0.05. Each data point was the result of a single ganglia divided and treated in the presence and absence of DMSO and DMOG or DMSO and TCP. Therefore, a Wilcoxon signed rank test was used to assess differences between each treated and untreated sample. The significant difference between DMSO control and DMOG was p=0.0018. This test used an exact p-value for small sample sizes with an a level of 0.05. n=20. Analyses were made using Prism (V5.0a) and are expressed as the mean+/−s.e.m.
# HSV-1 [5] = assay: HSV-1 IE mRNA levels in infected HFF cells; type: cell-based
# Experimental: FIG. 13 is a line graph showing viral IE (ICP4, ICP27, and ICP22) and control (S15, Sp1, and TBP) mRNA levels in HFF cells treated with DMSO or the indicated concentrations of ML324 for 3 hours and infected with HSV-1 (0.1 PFU per cell) for 3 hours. *P<0.0001, two-way ANOVA with Tukey's post hoc test. Data are means±SEM.
# HSV-1 IE mRNA levels of ICP4 and ICP27 decrease in cells infected in the presence of DMOG. Human foreskin fibroblast (HFF) cells were infected with HSV-1 at 0.1 PFU/cell for 3 hrs in the presence of increasing concentrations of DMOG. Cells were harvested and the levels of viral IE (ICP4, ICP27) and cell control (s15) mRNAs were assessed by qRT-PCR.
# All experiments were performed as described in Liang et al., Sci. Transl. Med. 5, 167ra5 (2013). N-(3-(dimethylamino)propyl)-4-(8-hydroxyquinolin-6-yl)benzamide (designated ML324) has the following characteristics: N-(3-(dimethylamino)propyl)-4-(8-hydroxyquinolin-6-yl)benzamide (1). LC-MS: rt (min)=3.033; ^1H NMR (400 MHz, DMSO-d6) δ 1.84-1.98 (m, 2H), 2.79 (s, 3H), 2.80 (s, 3H), 3.12 (ddd, J=10.2 Hz, 5.4 Hz and 5.2 Hz, 2H), 3.37 (q, 2H), 7.50 (s, 1H), 7.66 (dd, J=8.2 Hz and 4.3 Hz, 1H), 7.84 (s, 1H), 7.88-7.94 (m, 2H), 7.96-8.02 (m, 2H), 8.50 (d, J=8.2 Hz, 1H), 8.71 (t, J=5.6 Hz, 1H), 8.90 (d, J=4.1 Hz, 1H), 9.34 (brs, 1H); HRMS (ESI) m/z (M+H)^+ C21H24N3O2, 350.1867. found 350.1863.
# HSV-1 [6] = assay: MRC-5 cells, ML324 added at times relative to HSV-1 infection; type: cell-based; settings: added at 2 hours after infection; HSV-1 1.0 MOI; FIG. 17
# Experimental: FIG. 17 is a line graph showing MRC-5 cells that were treated with DMSO or ML324 at the indicated time relative to infection with HSV-1 (1.0 MOI). Viral and cellular mRNA levels were determined at 4 hours after infection. Data are means±SEM.
# [7] = 100 mM ACV or 50 mM ML324, 48 hours
compound,measurement,setting,value
"CN(C)CCCNC(=O)c1ccc(-c2cc(O)c3ncccc3c2)cc1 [Compound 4, N-(3-(dimethylamino)propyl)-4-(8-hydroxyquinolin-6-yl)benzamide]",primary viral reactivation events,"HSV-1 [1]; 50 mM ML324, 48 hours, FIG. 20",suppressed
same,UL29+ cell clusters,HSV-1 [1]; [7],2 clusters in 48 ganglia sections
same,isolated UL29+ neurons relative to DMSO,HSV-1 [1]; [7],most significant reduction
same,reduction of viral yields,HSV-1 [2],~5 logs
same,viral IE gene transcription at high multiplicity of infection,"HSV-1 [3]; 50 mM ML324, 2 hours after infection, FIG. 15",blocked
same,viral yields at high multiplicity of infection,"HSV-1 [3]; 50 mM ML324, 24 hours after infection, FIG. 16",reduced
same,reduction of viral reactivation (viral yield),"HSV-1 [4]; 50 (unit uncertain), 48 hours explant, FIG. 19",4.5 log
same,viral replication in ganglia after drug withdrawal,"HSV-1 [4]; after ML324 withdrawal, additional 72 hrs, FIG. 18",robust viral replication
same,IC50,"HSV-1 [5]; Human alphaherpesvirus 1, HFF, 3 h, read-out: IC50 for reducing IE gene expression",~10 µM
same,efficiency relative to DMOG in reducing IE gene expression,HSV-1 [5]; ML324 versus DMOG,~75 fold
same,reduction of IE gene transcription when added after infection,HSV-1 [6],> 50%
